# According to patent publication US20250195511A1, “INDAZOLE DERIVATIVES USEFUL AS INHIBITORS OF NOD-LIKE RECEPTOR PROTEIN 3” (Merck Sharp & Dohme LLC, priority 2023, published 2025):
# System: NLRP3 inflammasome
# Experiment: NLRP3 inflammasome activation: ASC-SPECK formation in gramicidin-stimulated THP-1 cells
# Format: cell-based
# Settings: PMA-treated human monocytic THP-1 cells, compound 1 h before 12.5 μg/ml gramicidin, 3-hour treatment
# Source text: Activation of the canonical NLRP3 inflammasome requires two steps, priming and activation. A priming signal such as a pathogen activated molecular patterns (PAMPs) or danger-activated molecular patterns (DAMPs) are recognized by Toll-like receptors leads to nuclear factor kappa B (NF-KB)-mediated signaling. […] The second step is activation which induces oligomerization of NLRP3 and subsequent assembly of NLRP3, apoptosis-associated speck-like protein containing a CARD (ASC), and procaspase-1 into an inflammasome complex. This triggers the transformation of procaspase-1 to caspase-1, and the production and secretion of mature IL-1β and IL-18 (Kim et al., J. Inflamm. 2015, 12, 41; Ozaki et al., J. Inflamm. Res. 2015, 8, 15-27; Rabeony et al., Eur. J. Immunol. 2015, 45, 2847). During inflammasome complex assembly, the oligomerization of NLRP3 triggers the nucleation of ASC and an event commonly referred to as “ASC SPECK” formation, as it is identified in the cell as a discrete puncta within the cell after staining and visualization of ASC using common immunocytochemical methods.
# The ability of compounds to inhibit NLRP3 inflammasome activation was determined in vitro by monitoring formation of the ASC-SPECK in human monocytic THP-1 cells after stimulation. THP-1 cells (ATCC catalog #TIB-202) were maintained in complete growth media containing Roswell Park Memorial Institute RPMI (ATCC catalog #30-2001), 10% heat inactivated fetal bovine serum, 1× penicillin/streptomycin and 0.05 mM 2-mercaptoethanol. At the start of the assay, undifferentiated THP-1 cells were plated at a density of 20,000 cells per well in a 384-well plate (Poly-D-lysine coated Cell Carrier Ultra microplate, Perkin Elmer catalog #6057500) in complete growth media supplemented with 10 ng/ml phorbol 12-myristate 13-acetate (PMA; Sigma catalog #P8139), and then incubated overnight. The next day, media was replaced with assay media (RPMI (Gibco catalog #11875-093), 0.01% bovine serum albumin (BSA)). Compounds were serially diluted in DMSO and then added to wells one hour prior to the addition of 12.5 μg/ml Gramicidin (Enzo Lifescience, catalog #ALX-350-233-M005). All incubations were carried out at 37° C. (5% CO2/95% air). Following a 3-hour treatment with gramicidin, cells are fixed with 4% paraformaldehyde and stored at 4° C. until immunofluorescence staining.
# Immunofluorescence staining: Anti-ASC antibody (MBL catalog #D086-3) was desalted and labeled with Alexa 488 antibody labeling kit (Thermo catalog #A20181) prior to use as described below. After fixation, the following steps were carried out at rt. Cells were first permeabilized with 0.3% polyethylene glycol tert-octylphenyl ether (Triton X-100) in phosphate-buffered saline (PBS) for 15 minutes and then incubated in blocking buffer containing 5% goat serum, 0.3% polyethylene glycol sorbitan monolaurate (Tween-20) and 0.03% sodium azide in PBS for 1 hour. Cells were stained with a mixture of ASC-Alexa 488 antibody (diluted 1:200 in blocking buffer) and nuclear stain DRAQ5 (1:5000 in blocking buffer, Thermo catalog #62251) in blocking buffer for 1 hour. Following a wash with 0.3% polyethylene glycol sorbitan monolaurate (Tween-20) in PBS, plates were imaged with an Opera Phenix High Content Screening System. The number of DRAQ5 positive cells containing ASC SPECKS were quantified in each well.
# Data analysis: EC50 values were calculated by standard curve-fitting analysis using an internally developed program in TIBCO Spotfire software.
# [1] = inhibition of ASC SPECK formation
# [2] = Homo sapiens, THP-1, inhibition of ASC SPECK formation
SMILES,EC50 [1] [nM],EC50 [2] [nM]
"Cc1cc(C(F)(F)F)cc(O)c1-c1cnc2c(C(C)O)n(C3CCC(=O)N(C(C)C)C3)nc2n1 (single isomer, unassigned) [Example 118, (R or S)-5-(6-(2-hydroxy-6-methyl-4-(trifluoromethyl)phenyl)-3-((S or R)-1-hydroxyethyl)-2H-pyrazolo[3,4-b]pyrazin-2-yl)-1-isopropylpiperidin-2-one]",26,–
"Cc1cc(C(F)(F)F)cc(O)c1-c1cnc2cn(C34COC(C3)C4)nc2n1 [Example 17, 2-(2-(2-oxabicyclo[2.1.1]hexan-4-yl)-2H-pyrazolo[3,4-b]pyrazin-6-yl)-3-methyl-5-(trifluoromethyl)phenol]",–,55
"Cc1cc(C(F)(F)F)cc(O)c1-c1cnc2cn(CC3(C#N)CCC3)nc2n1 [Example 13, 1-((6-(2-hydroxy-6-methyl-4-(trifluoromethyl)phenyl)-2H-pyrazolo[3,4-b]pyrazin-2-yl)methyl)cyclobutane-1-carbonitrile]",–,264
"Cc1cc(C(F)(F)F)cc(O)c1-c1cnc2cn(C[C@H]3CNC(=O)C3)nc2n1 [Example 7, (R)-4-((6-(2-hydroxy-6-methyl-4-(trifluoromethyl)phenyl)-2H-pyrazolo[3,4-b]pyrazin-2-yl)methyl)pyrrolidin-2-one]",–,46
"Cc1cc(C(F)(F)F)cc(O)c1-c1cnc2cn([C@]3(C)CCS(=O)(=O)C3)nc2n1 [Example 29, 3-methyl-2-[2-[(3R)-3-methyl-1,1-dioxo-thiolan-3-yl]pyrazolo[3,4-b]pyrazin-6-yl]-5-(trifluoromethyl)phenol]",–,232
"Cc1cc(C(F)(F)F)cc(O)c1-c1cnc2cn(C3CC34CCOCC4)nc2n1 (racemic) [Example 23, (S and R)-2-(2-(6-oxaspiro[2.5]octan-1-yl)-2H-pyrazolo[3,4-b]pyrazin-6-yl)-3-methyl-5-(trifluoromethyl)phenol]",–,461
"Cc1cc(C(F)(F)F)cc(O)c1-c1cnc2cn([C@H]3C[C@@H](CC#N)C3)nc2n1 [Example 18, 2-((1s,3s)-3-(6-(2-hydroxy-6-methyl-4-(trifluoromethyl)phenyl)-2H-pyrazolo[3,4-b]pyrazin-2-yl)cyclobutyl)acetonitrile]",–,465
"Cc1cc(C(F)(F)F)cc(O)c1-c1cnc2cn(C34CC(C(F)F)(C3)C4)nc2n1 [Example 39, 2-[2-[3-(difluoromethyl)-1-bicyclo[1.1.1]pentanyl]pyrazolo[3,4-b]pyrazin-6-yl]-3-methyl-5-(trifluoromethyl)phenol]",–,90
"Cc1cc(C(F)(F)F)cc(O)c1-c1cnc2cn(C34CCOC(C)(C3)C4)nc2n1 [Example 15, 3-methyl-2-(2-(1-methyl-2-oxabicyclo[3.1.1]heptan-5-yl)-2H-pyrazolo[3,4-b]pyrazin-6-yl)-5-(trifluoromethyl)phenol]",–,84
"Cc1cc(C(F)(F)F)cc(O)c1-c1cnc2cn([C@@H]3C[C@@H]4C[C@H]3CO4)nc2n1 (single isomer, unassigned) [Example 3, 2-(2-((1S,4R,5R or 1R,4S,5S)-2-oxabicyclo[2.2.1]heptan-5-yl)-2H-pyrazolo[3,4-b]pyrazin-6-yl)-3-methyl-5-(trifluoromethyl)phenol]",35,–
"Cc1cc(C(F)(F)F)cc(O)c1-c1cnc2cn(C34CCC(O)(C3)C4)nc2n1 [Example 26, 4-[6-[2-hydroxy-6-methyl-4-(trifluoromethyl)phenyl]pyrazolo[3,4-b]pyrazin-2-yl]bicyclo[2.1.1]hexan-1-ol]",–,51
"CCc1nnc2n1CC(n1cc3ncc(-c4c(C)cc(C(F)(F)F)cc4O)nc3n1)CC2 (single isomer, unassigned) [Example 73, (S or R)-2-(2-(3-ethyl-5,6,7,8-tetrahydro-[1,2,4]triazolo[4,3-a]pyridin-6-yl)-2H-pyrazolo[3,4-b]pyrazin-6-yl)-3-methyl-5-(trifluoromethyl)phenol]",142,–
"Cc1cc(C(F)(F)F)cc(O)c1-c1cnc2cn([C@H]3C[C@H]4C[C@@H]3CO4)nc2n1 (single isomer, unassigned) [Example 4, 2-(2-((1R,4S,5S or 1S,4R,5R)-2-oxabicyclo[2.2.1]heptan-5-yl)-2H-pyrazolo[3,4-b]pyrazin-6-yl)-3-methyl-5-(trifluoromethyl)phenol]",34,–

# Further lines, results first:
EC50 [1] [nM],EC50 [2] [nM],SMILES
291,–,"Cc1cc(C(F)(F)F)cc(O)c1-c1cnc2cn([C@H]3CCOC[C@@H]3F)nc2n1 (single isomer, unassigned) [Example 104, 2-(2-((3S,4R or 3R,4S)-3-fluorotetrahydro-2H-pyran-4-yl)-2H-pyrazolo[3,4-b]pyrazin-6-yl)-3-methyl-5-(trifluoromethyl)phenol]"
–,25,"Cc1cc(C(F)(F)F)cc(O)c1-c1cnc2cn([C@H]3C[C@H](F)C3)nc2n1 [Example 16, 2-(2-((1R,3R)-3-fluorocyclobutyl)-2H-pyrazolo[3,4-b]pyrazin-6-yl)-3-methyl-5-(trifluoromethyl)phenol]"
237,–,"Cc1cc(C(F)(F)F)cc(O)c1-c1cnc2cn(C3CCOCC3(C)C)nc2n1 (single isomer, unassigned) [Example 98, (S or R)-2-(2-(3,3-dimethyltetrahydro-2H-pyran-4-yl)-2H-pyrazolo[3,4-b]pyrazin-6-yl)-3-methyl-5-(trifluoromethyl)phenol]"
–,37,"Cc1cc(C(F)(F)F)cc(O)c1-c1cnc2cn([C@H]3COCC[C@@H]3O)nc2n1 [Example 35, (3S,4S)-3-[6-[2-hydroxy-6-methyl-4-(trifluoromethyl)phenyl]pyrazolo[3,4-b]pyrazin-2-yl]tetrahydropyran-4-ol]"
–,59,"Cc1cc(C(F)(F)F)cc(O)c1-c1cnc2cn([C@@H]3[C@@H]4COC[C@@H]43)nc2n1 [Example 9, 2-(2-((1R,5S,6S)-3-oxabicyclo[3.1.0]hexan-6-yl)-2H-pyrazolo[3,4-b]pyrazin-6-yl)-3-methyl-5-(trifluoromethyl)phenol]"
–,18,"Cc1cc(C(F)(F)F)cc(O)c1-c1cnc2cn([C@H]3C[C@H](C#N)C3)nc2n1 [Example 36, (1R,3R)-3-(6-(2-hydroxy-6-methyl-4-(trifluoromethyl)phenyl)-2H-pyrazolo[3,4-b]pyrazin-2-yl)cyclobutane-1-carbonitrile]"
–,407,"Cc1cc(C(F)(F)F)cc(O)c1-c1cnc2cn([C@@H]3CCS(=O)(=O)C3)nc2n1 [Example 30, 2-[2-[(3R)-1,1-dioxothiolan-3-yl]pyrazolo[3,4-b]pyrazin-6-yl]-3-methyl-5-(trifluoromethyl)phenol]"
580,–,"Cc1cc(C(F)(F)F)cc(O)c1-c1cnc2cn(C3CCOCC34CC4)nc2n1 (single isomer, unassigned) [Example 99, (R or S)-2-(2-(5-oxaspiro[2.5]octan-8-yl)-2H-pyrazolo[3,4-b]pyrazin-6-yl)-3-methyl-5-(trifluoromethyl)phenol]"
–,321,"Cc1cc(C(F)(F)F)cc(O)c1-c1cnc2cn([C@H]3CCOC[C@@H]3F)nc2n1 (single isomer, unassigned) [Example 103, 2-(2-((3R,4S or 3S,4R)-3-fluorotetrahydro-2H-pyran-4-yl)-2H-pyrazolo[3,4-b]pyrazin-6-yl)-3-methyl-5-(trifluoromethyl)phenol]"
60,–,"Cc1cc(C(F)(F)F)cc(O)c1-c1cnc2cn(C34CCOCC3C4)nc2n1 (single isomer, unassigned) [Example 91, 2-(2-((1R,6S or 1S,6R)-3-oxabicyclo[4.1.0]heptan-6-yl)-2H-pyrazolo[3,4-b]pyrazin-6-yl)-3-methyl-5-(trifluoromethyl)phenol]"
–,121,"Cc1cc(C(F)(F)F)cc(O)c1-c1cnc2cn([C@H]3CC[C@@H](O)CC3)nc2n1 [Example 44, 2-(2-((1S,4S)-4-hydroxycyclohexyl)-2H-pyrazolo[3,4-b]pyrazin-6-yl)-3-methyl-5-(trifluoromethyl)phenol]"
